“Also recorded” adds a separate entry of the source. Ends that are not written are not given here.
What was measured:
[1] = tested on: 4T1.2-Luc TNBC tumors in Balb/c mice; experiment: 4T1.2-Luc orthotopic TNBC mouse model, unilateral tumors, eight IP doses; format: in vivo; conditions: trehalose only group, H&E scoring
Description: (§1) The model was created by orthotopically injecting 4T1.2-Luc cells in the 4th mammary fat pad of Balb/c mice, with 1 × 10^5 cells per mouse. The cell line was developed by Dr. Cheryl L. Jorcyk and expresses the luciferase gene which serves as a luminescent indicator of gene expression or tumorigenesis, making the tumor cell traceable in vivo. Treatment started after the formation of palpable tumors and was detected by in vivo BLI (IVIS, Perkin Elmer) followed by randomization of the animals per group. For evaluating the effect of the peptides on this model, we carried out two separate studies. […]
Mice were anesthetized by isoflurane followed by measurement of the tumor length and width using a manual Vernier caliper. This was performed before every drug administration and the tumor volume was calculated using the formula (length × width^2)/2. Body weights were also measured before every dose of the drug.
Whole-body bioluminescence imaging (BLI) using the In Vivo Imaging System (IVIS® Spectrum, Perkin Elmer) was performed to detect in vivo tumor burden and metastasis, as evaluated by the bioluminescence signal from the 4T1.2-Luc cells. […] The images were analyzed by Perkin Elmer software and Aura Version 4.0.7 (Spectral instruments Imaging). […]

[2] = tested on: 4T1.2-Luc TNBC tumors in Balb/c mice; experiment: Pilot study, 4T1.2-Luc bilateral mammary tumor model, six IP doses; format: in vivo, mouse; conditions: study-1, trehalose only group
Description: as §1, with “studies. The first pilot study involved a set of 4 mice per group with bilateral mammary tumors, which received six IP administration of PBS, 9S1R-NulloPT drug at 50 mg/kg, 100 mg/kg body weight or Trehalose, over a period of 2 weeks. The present study includes a set of 7–9 mice per group with unilateral tumors including the same groups as in the pilot study, but received a total of eight injections per mouse over a period of 2 weeks.” for “studies.”
Supplementary Fig 2: Detailed results from pilot first study with six IP administration of PBS (control), Trehalose, 50mg/kg NulloPT and 100 mg/kg NulloPT in TNBC mice. […] Treatment started after the formation of palpable tumors and was detected by an in vivo BLI system (IVIS, Perkin Elmer) followed by randomization of the animals per group. […]

4T1.2 cells = experiment: LC-MS detection of peptide internalization within cells; format: cell-based, mouse; conditions: 50uM, 2h, PBS wash, lysis, 3KDa filter, 3+ and 4+ forms
Experimental: Supplementary Fig 1: Detection of peptide internalization and stability within cells. (A) LC-MS Graph showing peak of peptide only spike at 1mg/ml final concentration (positive control) (B) Sample-1: 2 × 10^5 4T1.2 cells lysate was filtered through a 3KDa cut-off Amicon protein filters (Millipore) to get rid of proteins larger than 3KDa, followed by LC-MS detection (negative control). (C) Sample-2: 2 × 10^5 4T1.2 cells lysate (50ul) was mixed with the peptide at 1mg/ml final concentration and incubated for 30 mins followed by filtering through 3 KDa cut-off filter and LC-MS detection. (D) Sample-3: 50 ul of filtered cell lysate or Sample-1 was mixed with the peptide at 1mg/ml final concentration and incubated for 30 mins followed by LC-MS detection. (E) Sample-4: Cells were treated with 50uM of peptide and incubated for 2h followed by washing in PBS, lysis, passing through 3KDa protein filter, and detection by LC-MS. […] (G) Enlarged peaks from- C, Sample-2 with (H) extracted ion chromatogram (EIC) peaks of the detected peptide at the exact 3+ and 4+ valance forms (red circles). (I) Enlarged peaks from- E, Sample-4 with (J) extracted ion chromatogram (EIC) peaks of the detected peptide at the exact 3+ and 4+ valance forms (red circles).

[3] = Half-life of peptide 9S1R in serum; format: in vitro ADME; conditions: bovine, fetal bovine serum; peptide spiked into FBS, 37 °C, exposure 30 s, 5, 30, 60, 90 min; 75% ice cold acetonitrile precipitation; HPLC-QTOF MS, log2 EIC peak area vs time; read-out: half-life (t1/2) in fetal bovine serum
Experimental: The half-life of peptide 9S1R was determined by spiking the peptide into fetal bovine serum (FBS) for exposure times of 30 s and 5, 30, 60 or 90 min. During the exposure, FBS containing the spike peptides were incubated at 37 °C. The exposure was halted, and the peptide was extracted from FBS using protein precipitation. Protein precipitation was accomplished using 75% ice cold acetonitrile, followed by incubation at − 20 °C for one hour, and centrifugation at 9000 rpm for 10 min at […]. The supernatant was removed and saved for analysis. Peptide samples were analyzed by High pressure liquid chromatography (HPLC) mass spectrometry (MS) using an ultra-high-resolution Quadrupole Time of Flight (QTOF) instrument (Bruker maxis, Bruker Corporation, Billerica, MA, USA). HPLC mobile phase consisted of 18 MΩ H2O and HPLC grade formic acid and acetonitrile (> 99% purity, Fisher Scientific, Pittsburgh, PA, USA). The electrospray ionization (ESI) source was operated under the following conditions: positive ion mode; nebulizer pressure: 1.2 Bar; flow rate of drying gas (N2): 8 L/min; drying gas temperature: 200 °C; voltage between HV capillary and HV end-plate offset: 3000 V to – 500 V; mass range was set from 250 to 2900 m/z; and the quadrupole ion energy was 4.0 eV. […]

Compound | immune cell infiltration or margin inflammation on the tumors [1] | tumor size with trehalose alone [2] | uptake of native untagged peptide inside cells by mass spectrometry (4T1.2 cells) | half-life [3]
OC[C@H]1O[C@H](O[C@H]2O[C@H](CO)[C@@H](O)[C@H](O)[C@H]2O)[C@H](O)[C@@H](O)[C@@H]1O [Trehalose] | did not show any effect | higher than control tumor size | – | –
RRRRRWCMNW [9S1R] | – | – | detected inside cells in two forms; also recorded: available inside the cells | 8.7 min
